# Key:
# Format in all cases: in vivo
# barnyardgrass [1] = experiment: Test Example 1: herbicidal effects in preemergence treatment under submerged conditions; conditions: dose 2.52 g/a
# In short: (§1)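 Weed seeds and 2.5-leaf rice seedlings shared each flooded cup of alluvial soil. Dosing, expressed as g per are, was by pouring water-diluted emulsifiable concentrate onto the surface on sowing day. Mortality was graded 0 to 5 after three weeks' growth.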
# bulrush [2] = experiment: as above; conditions: dose 2.52 g/a
# In short: as §1
# ducksalad [3] = experiment: as above; conditions: dose 2.52 g/a
# In short: as §1
# transplanted rice = experiment: Test Example 1: preemergence treatment under submerged conditions, effect on crop; conditions: dose 2.52 g/a
# In short: as §1
# barnyardgrass [4] = experiment: Test Example 2: herbicidal effects during the vegetation period under submerged conditions; conditions: treatment during the vegetation period under submerged conditions; dose 2.52 g/a
# In short: (§2)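 Barnyardgrass, bulrush and ducksalad were co-sown in alluvial soil flooded to 4 cm and grown in a greenhouse at 25 to 30° C. At the 1- or 2-leaf stage, water-diluted emulsifiable concentrates went onto the water surface at set doses (g/a). Herbicidal effect was scored three weeks later on a graded scale.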
# bulrush [5] = experiment: as above; conditions: treatment during the vegetation period under submerged conditions; dose 2.52 g/a
# In short: as §2
# ducksalad [6] = experiment: as above; conditions: treatment during the vegetation period under submerged conditions; dose 2.52 g/a
# In short: as §2
# Italian ryegrass [7] = experiment: Test Example 3: herbicidal effects in soil treatment; conditions: dose 3.2 g/a
# In short: (§3)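 Seeds were sown in sterilized diluvial soil and covered with about 1.5 cm of soil. Compounds, formulated as emulsifiable concentrates and diluted with water, were sprayed evenly over the soil surface at set doses in g/a. Herbicidal effect was scored on a rating scale three weeks later.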
# barnyardgrass [8] = experiment: as above; conditions: dose 3.2 g/a
# In short: as §3
# beadstraw [9] = experiment: as above; conditions: dose 3.2 g/a
# In short: as §3
# common chickweed [10] = experiment: as above; conditions: dose 3.2 g/a
# In short: as §3
# common lambsquater [11] = experiment: as above; conditions: dose 3.2 g/a
# In short: as §3
# common ragweed [12] = experiment: as above; conditions: dose 3.2 g/a
# In short: as §3
# giant foxtail [13] = experiment: as above; conditions: dose 3.2 g/a
# In short: as §3
# large crabgrass [14] = experiment: as above; conditions: dose 3.2 g/a
# In short: as §3
# redroot pigweed [15] = experiment: as above; conditions: dose 3.2 g/a
# In short: as §3
# velvetleaf [16] = experiment: as above; conditions: dose 3.2 g/a
# In short: as §3
# water foxtail [17] = experiment: as above; conditions: dose 3.2 g/a
# In short: as §3
# wild oat [18] = experiment: as above; conditions: dose 3.2 g/a
# In short: as §3
# Italian ryegrass [19] = experiment: Test Example 4: herbicidal effect in foliage treatment; conditions: dose 3.2 g/a, three weeks after application
# In short: (§4)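 14-day greenhouse-grown plants (25–30° C) sprayed on foliage with diluted EC; dose as g/a; effect graded after 3 weeks.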
# barnyardgrass [20] = experiment: as above; conditions: dose 3.2 g/a, three weeks after application
# In short: as §4
# beadstraw [21] = experiment: as above; conditions: dose 3.2 g/a, three weeks after application
# In short: as §4
# common chickweed [22] = experiment: as above; conditions: dose 3.2 g/a, three weeks after application
# In short: as §4
# common lambsquater [23] = experiment: as above; conditions: dose 3.2 g/a, three weeks after application
# In short: as §4
# common ragweed [24] = experiment: as above; conditions: dose 3.2 g/a, three weeks after application
# In short: as §4
# giant foxtail [25] = experiment: as above; conditions: dose 3.2 g/a, three weeks after application
# In short: as §4
# large crabgrass [26] = experiment: as above; conditions: dose 3.2 g/a, three weeks after application
# In short: as §4
# posumbu knotweed = experiment: as above; conditions: dose 3.2 g/a, three weeks after application
# In short: as §4
# redroot pigweed [27] = experiment: as above; conditions: dose 3.2 g/a, three weeks after application
# In short: as §4
# velvetleaf [28] = experiment: as above; conditions: dose 3.2 g/a, three weeks after application
# In short: as §4
# water foxtail [29] = experiment: as above; conditions: dose 3.2 g/a, three weeks after application
# In short: as §4
# wild oat [30] = experiment: as above; conditions: dose 3.2 g/a, three weeks after application
# In short: as §4
Structure (SMILES),"A: barnyardgrass, herbicidal effect (evaluation scale 0-5) (barnyardgrass [1])","B: bulrush, herbicidal effect (evaluation scale 0-5) (bulrush [2])","C: ducksalad, herbicidal effect (evaluation scale 0-5) (ducksalad [3])","a: transplanted rice, effect on crop (evaluation scale 0-5) (transplanted rice)","A: barnyardgrass, herbicidal effect (evaluation scale 0-5) (barnyardgrass [4])","B: bulrush, herbicidal effect (evaluation scale 0-5) (bulrush [5])","C: ducksalad, herbicidal effect (evaluation scale 0-5) (ducksalad [6])","H: Italian ryegrass, herbicidal effect (evaluation scale 0-5) (Italian ryegrass [7])","A: barnyardgrass, herbicidal effect (evaluation scale 0-5) (barnyardgrass [8])","O: beadstraw, herbicidal effect (evaluation scale 0-5) (beadstraw [9])","N: common chickweed, herbicidal effect (evaluation scale 0-5) (common chickweed [10])","L: common lambsquater, herbicidal effect (evaluation scale 0-5) (common lambsquater [11])","J: common ragweed, herbicidal effect (evaluation scale 0-5) (common ragweed [12])","E: giant foxtail, herbicidal effect (evaluation scale 0-5) (giant foxtail [13])","D: large crabgrass, herbicidal effect (evaluation scale 0-5) (large crabgrass [14])","K: redroot pigweed, herbicidal effect (evaluation scale 0-5) (redroot pigweed [15])","I: velvetleaf, herbicidal effect (evaluation scale 0-5) (velvetleaf [16])","G: water foxtail, herbicidal effect (evaluation scale 0-5) (water foxtail [17])","F: wild oat, herbicidal effect (evaluation scale 0-5) (wild oat [18])","H: Italian ryegrass, herbicidal effect (Italian ryegrass [19])",further results
COC(=O)N(c1ccccc1CN1COC(C)(C)CC1=O)S(=O)(=O)C(F)(F)F [II-22],5 (mortality of 90% or above (nearly complete death)),5 (mortality of 90% or above (nearly complete death)),5 (mortality of 90% or above (nearly complete death)),0 (mortality of less than 5% (almost ineffective)),5 (mortality of 90% or above (nearly complete death)),5 (mortality of 90% or above (nearly complete death)),5 (mortality of 90% or above (nearly complete death)),5 (mortality of 90% or above (nearly complete death)),5 (mortality of 90% or above (nearly complete death)),5 (mortality of 90% or above (nearly complete death)),4 (mortality of at least 70% and less than 90%),4 (mortality of at least 70% and less than 90%),3 (mortality of at least 40% and less than 70%),3 (mortality of at least 40% and less than 70%),5 (mortality of 90% or above (nearly complete death)),0 (mortality of less than 5% (almost ineffective)),5 (mortality of 90% or above (nearly complete death)),5 (mortality of 90% or above (nearly complete death)),0 (mortality of less than 5% (almost ineffective)),4 (mortality of at least 70% and less than 90%),"A: barnyardgrass, herbicidal effect (barnyardgrass [20]): 5 (mortality of 90% or above (nearly complete death)); O: beadstraw, herbicidal effect (beadstraw [21]): 5 (mortality of 90% or above (nearly complete death)); N: common chickweed, herbicidal effect (common chickweed [22]): 3 (mortality of at least 40% and less than 70%); L: common lambsquater, herbicidal effect (common lambsquater [23]): 3 (mortality of at least 40% and less than 70%); J: common ragweed, herbicidal effect (common ragweed [24]): 4 (mortality of at least 70% and less than 90%); E: giant foxtail, herbicidal effect (giant foxtail [25]): 5 (mortality of 90% or above (nearly complete death)); D: large crabgrass, herbicidal effect (large crabgrass [26]): 5 (mortality of 90% or above (nearly complete death)); M: posumbu knotweed, herbicidal effect (posumbu knotweed): 3 (mortality of at least 40% and less than 70%); K: redroot pigweed, herbicidal effect (redroot pigweed [27]): 0 (mortality of less than 5% (almost ineffective)); I: velvetleaf, herbicidal effect (velvetleaf [28]): 5 (mortality of 90% or above (nearly complete death)); G: water foxtail, herbicidal effect (water foxtail [29]): 5 (mortality of 90% or above (nearly complete death)); F: wild oat, herbicidal effect (wild oat [30]): 0 (mortality of less than 5% (almost ineffective))"
CCCCOC(=O)N(c1ccccc1CN1COC(C)(C)CC1=O)S(=O)(=O)C(F)(F)F [II-25],5 (mortality of 90% or above (nearly complete death)),5 (mortality of 90% or above (nearly complete death)),5 (mortality of 90% or above (nearly complete death)),0 (mortality of less than 5% (almost ineffective)),5 (mortality of 90% or above (nearly complete death)),5 (mortality of 90% or above (nearly complete death)),5 (mortality of 90% or above (nearly complete death)),1 (mortality of at least 5% and less than 20%),4 (mortality of at least 70% and less than 90%),5 (mortality of 90% or above (nearly complete death)),4 (mortality of at least 70% and less than 90%),0 (mortality of less than 5% (almost ineffective)),4 (mortality of at least 70% and less than 90%),3 (mortality of at least 40% and less than 70%),4 (mortality of at least 70% and less than 90%),0 (mortality of less than 5% (almost ineffective)),5 (mortality of 90% or above (nearly complete death)),5 (mortality of 90% or above (nearly complete death)),0 (mortality of less than 5% (almost ineffective)),0 (mortality of less than 5% (almost ineffective)),"A: barnyardgrass, herbicidal effect (barnyardgrass [20]): 5 (mortality of 90% or above (nearly complete death)); O: beadstraw, herbicidal effect (beadstraw [21]): 5 (mortality of 90% or above (nearly complete death)); N: common chickweed, herbicidal effect (common chickweed [22]): 4 (mortality of at least 70% and less than 90%); L: common lambsquater, herbicidal effect (common lambsquater [23]): 1 (mortality of at least 5% and less than 20%); J: common ragweed, herbicidal effect (common ragweed [24]): 3 (mortality of at least 40% and less than 70%); E: giant foxtail, herbicidal effect (giant foxtail [25]): 5 (mortality of 90% or above (nearly complete death)); D: large crabgrass, herbicidal effect (large crabgrass [26]): 5 (mortality of 90% or above (nearly complete death)); M: posumbu knotweed, herbicidal effect (posumbu knotweed): 1 (mortality of at least 5% and less than 20%); K: redroot pigweed, herbicidal effect (redroot pigweed [27]): 0 (mortality of less than 5% (almost ineffective)); I: velvetleaf, herbicidal effect (velvetleaf [28]): 4 (mortality of at least 70% and less than 90%); G: water foxtail, herbicidal effect (water foxtail [29]): 5 (mortality of 90% or above (nearly complete death)); F: wild oat, herbicidal effect (wild oat [30]): 0 (mortality of less than 5% (almost ineffective))"

# — US20120029187A1, “HALOALKYLSULFONANILIDE DERIVATIVE” (Nissan Chemical Industries, Ltd., priority 2009, published 2012)
